Test results published in DBAASP.
≈ marks a conversion by molar mass, not a printed value. Where “and” joins values, the source holds several entries; their conditions need not be identical. Identical values can stand only once.

Tests used:
Test in all cases: ≥ marks a high value that may be exact or a test limit, other limits are often not marked, values filed in µg/mL are converted to µM
[1] = tested on: Staphylococcus aureus II ATCC 6538P
[2] = tested on: Aspergillus fumigatus ATCC 26430
[3] = tested on: Enterobacter cloacae ATCC 49141
[4] = tested on: Enterococcus faecalis ATCC 19433
[5] = tested on: Acinetobacter baumannii ATCC 19606
[6] = tested on: Escherichia coli ATCC 25922
[7] = tested on: Pseudomonas aeruginosa ATCC 27853
Escherichia coli D21 = tested on: Escherichia coli D21
[8] = tested on: Candida albicans ATCC 10231
Acinetobacter baumannii = tested on: Acinetobacter baumannii
[9] = tested on: Streptococcus pyogenes NZ131
Escherichia coli O29 = tested on: Escherichia coli O29
[10] = tested on: Candida albicans ATCC 14053
[11] = tested on: Staphylococcus aureus ATCC 25923
[12] = tested on: Staphylococcus aureus mprF
[13] = tested on: Klebsiella pneumoniae ATCC 13883
[14] = tested on: Streptococcus pyogenes ATCC 19615
[15] = tested on: Enterococcus faecalis ATCC 29212
[16] = tested on: Salmonella enterica subsp. enterica serovar Typhimurium ATCC 14028
Bacillus subtilis = tested on: Bacillus subtilis
Escherichia coli = tested on: Escherichia coli
[17] = tested on: Klebsiella pneumoniae ATCC 700603
[18] = tested on: Proteus vulgaris ATCC 49132
[19] = tested on: Neisseria gonorrhoeae ATCC 49226
[20] = tested on: Staphylococcus epidermidis ATCC 12228
[21] = tested on: Staphylococcus aureus ATCC 43330
[22] = tested on: Micrococcus luteus ATCC 49732
[23] = tested on: Streptococcus agalactiae ATCC 12386
Serratia sp. ATCC 39006 = tested on: Serratia sp. ATCC 39006
[24] = tested on: Shigella sonnei ATCC 25931
[25] = tested on: Staphylococcus saprophyticus ATCC 15305
[26] = tested on: Staphylococcus aureus ATCC 29213
[27] = tested on: Pseudomonas aeruginosa LC
[28] = tested on: Pseudomonas aeruginosa LCGE
[29] = tested on: Pseudomonas aeruginosa ATCC 10419
[30] = tested on: Salmonella enterica subsp. enterica serovar Typhimurium C77-31
[31] = tested on: Pseudomonas aeruginosa LCCI
[32] = tested on: Pseudomonas aeruginosa ATCC 21630
[33] = tested on: Pseudomonas aeruginosa LCCE
Escherichia coli UB1005 = tested on: Escherichia coli UB1005
[34] = tested on: Pseudomonas aeruginosa ATCC 21625

CC(C)C[C@H](NC(=O)[C@H](Cc1cnc[nH]1)NC(=O)[C@H](CCCCN)NC(=O)[C@H](CC(C)C)NC(=O)[C@H](CC(C)C)NC(=O)[C@H](Cc1cnc[nH]1)NC(=O)[C@H](CCCCN)NC(=O)[C@H](CC(C)C)NC(=O)[C@H](CC(C)C)NC(=O)[C@H](Cc1cnc[nH]1)NC(=O)[C@H](CCCCN)NC(=O)[C@H](CC(C)C)NC(=O)[C@H](C)NC(=O)[C@H](CC(=O)O)NC(=O)[C@@H](N)CC(=O)O)C(=O)O [DDALKHLLKHLLKHL]
MIC [1]: 25 µM and 22 µM
MIC [2]: 12.5 µM and 25 µM
MIC [3]: ≥ 100 µM
MIC [4]: 25 µM (≈ 44.9 µg/mL)
MIC [5]: 50 µM (≈ 89.7 µg/mL)
MIC [6]: 100 µM (≈ 179 µg/mL)
MIC [7]: 50 µM (≈ 89.7 µg/mL)
MIC (Escherichia coli D21): ≥ 50 µM
MIC [8]: 12.5 µM (≈ 22.4 µg/mL)

CC[C@H](C)[C@H](NC(=O)[C@H](CCCN=C(N)N)NC(=O)[C@H](CCC(N)=O)NC(=O)[C@@H](NC(=O)[C@@H](NC(=O)[C@H](CCCN=C(N)N)NC(=O)[C@@H](N)CCCCN)[C@@H](C)CC)C(C)C)C(=O)N[C@@H](CCCCN)C(=O)N[C@@H](CC(=O)O)C(=O)N[C@@H](Cc1ccccc1)C(=O)N[C@@H](CC(C)C)C(=O)N[C@@H](CCCN=C(N)N)C(=O)N[C@@H](CC(N)=O)C(=O)N[C@@H](CC(C)C)C(=O)N[C@H](C(=O)N1CCC[C@H]1C(=O)N[C@@H](CCCN=C(N)N)C(=O)N[C@H](C(=O)N[C@@H](CCC(=O)O)C(=O)N[C@@H](CO)C(=O)O)[C@@H](C)O)C(C)C [KRIVQRIKDFLRNLVPRTES]
MIC (Acinetobacter baumannii): 9.16 µM (≈ 22.6 µg/mL)
MIC [9]: 4 µM (≈ 9.88 µg/mL)
MIC (Escherichia coli O29): ≥ 64 µM
MIC [5]: 25.9 µM (≈ 64 µg/mL)
MIC [10]: 10 µM (≈ 24.7 µg/mL)
MIC [11]: > 64 µM
MIC [12]: 16 µM (≈ 39.5 µg/mL)

CC[C@H](C)[C@H](NC(=O)[C@@H]1CCCN1C(=O)[C@H](CC(C)C)NC(=O)[C@@H](N)CC(C)C)C(=O)N[C@H](C(=O)NCC(=O)N[C@@H](CC(N)=O)C(=O)N[C@@H](CC(C)C)C(=O)N[C@@H](CC(C)C)C(=O)N[C@@H](CCCCN)C(=O)N[C@@H](CO)C(=O)N[C@@H](CC(C)C)C(=O)N[C@@H](CC(C)C)C(=O)NCC(=O)N[C@@H](Cc1c[nH]c2ccccc12)C(=O)N[C@@H](CCCCN)C(=O)N[C@@H](CCCN=C(N)N)C(=O)N[C@@H](CCCCN)C(=O)N[C@@H](C)C(=O)N[C@@H](Cc1ccccc1)C(=O)NCC(N)=O)C(C)C [LLPIVGNLLKSLLGWKRKAFG]
MIC [13]: ≥ 200 µM
MIC [14]: ≥ 100 µM
MIC [15]: 100 µM (≈ 232 µg/mL)
MIC [11]: 50 µM (≈ 116 µg/mL)
MIC [16]: > 200 µM
MIC (Bacillus subtilis): ≥ 50 µM
MIC [7]: 200 µM (≈ 465 µg/mL)
MIC (Escherichia coli): 100 µM (≈ 232 µg/mL)

CC[C@H](C)[C@H](NC(=O)[C@H](CCCCN)NC(=O)[C@H](CCCN=C(N)N)NC(=O)[C@H](CC(C)C)NC(=O)[C@H](Cc1ccccc1)NC(=O)[C@H](CCCN=C(N)N)NC(=O)CNC(=O)[C@H](Cc1ccccc1)NC(=O)[C@@H](N)CCCN=C(N)N)C(=O)N[C@@H](CCCN=C(N)N)C(=O)N[C@@H](CCCN=C(N)N)C(=O)N[C@@H](Cc1ccccc1)C(=O)N[C@@H](CCCN=C(N)N)C(=O)N1CCC[C@H]1C(=O)N[C@@H](CCCCN)C(=O)N[C@H](C(=O)N[C@H](C(=O)N[C@H](C(=O)N[C@H](C(=O)N[C@H](C(=O)N[C@@H](CCC(N)=O)C(=O)NCC(=O)N[C@@H](CO)C(=O)N[C@@H](C)C(=O)N[C@@H](CCCN=C(N)N)C(=O)N[C@@H](Cc1ccccc1)C(N)=O)[C@@H](C)CC)[C@@H](C)O)[C@@H](C)CC)[C@@H](C)O)C(C)C [RFGRFLRKIRRFRPKVTITIQGSARF]
MIC [17]: 4.55 µM (≈ 14.6 µg/mL)
MIC [18]: 3.25 µM (≈ 10.4 µg/mL)
MIC [19]: 5.2 µM (≈ 16.7 µg/mL)
MIC [20]: 2.92 µM (≈ 9.37 µg/mL)
MIC [21]: 2.6 µM (≈ 8.33 µg/mL)
MIC [22]: 0.814 µM (≈ 2.61 µg/mL)
MIC [15]: 2.25 µM (≈ 7.21 µg/mL)
MIC [6]: 1.62 µM (≈ 5.21 µg/mL)
MIC [23]: 2.6 µM (≈ 8.33 µg/mL)
MIC [11]: 2.25 µM (≈ 7.21 µg/mL)
MIC [16]: 2.25 µM (≈ 7.21 µg/mL)
MIC (Serratia sp. ATCC 39006): 3.9 µM (≈ 12.5 µg/mL)
MIC [24]: 3.9 µM (≈ 12.5 µg/mL)
MIC [25]: 0.976 µM (≈ 3.13 µg/mL)

CC[C@H](C)[C@H](NC(=O)[C@H](CCCCN)NC(=O)[C@H](CCCCN)NC(=O)[C@H](CC(C)C)NC(=O)[C@H](CCCN=C(N)N)NC(=O)[C@H](CCCCN)NC(=O)[C@H](CCCN=C(N)N)NC(=O)[C@@H](NC(=O)[C@H](CCCCN)NC(=O)[C@H](CCCCN)NC(=O)[C@H](CCCN=C(N)N)NC(=O)[C@H](CC(C)C)NC(=O)[C@H](CCCN=C(N)N)NC(=O)[C@H](CCCN=C(N)N)NC(=O)[C@H](Cc1ccccc1)NC(=O)[C@@H](N)CCCN=C(N)N)[C@@H](C)O)C(N)=O [RFRRLRKKTRKRLKKI]
MIC [26]: 128 µM (≈ 279 µg/mL)
MIC [27]: ≥ 32 µM
MIC [20]: 32 µM (≈ 69.8 µg/mL)
MIC [28]: ≥ 256 µM
MIC [29]: ≥ 256 µM
MIC [30]: ≥ 128 µM
MIC [31]: ≥ 256 µM
MIC [15]: 128 µM (≈ 279 µg/mL)
MIC [6]: 128 µM (≈ 279 µg/mL)
MIC [32]: ≥ 256 µM
MIC [7]: 256 µM (≈ 559 µg/mL)
MIC [33]: ≥ 256 µM
MIC (Escherichia coli UB1005): ≥ 128 µM
MIC [34]: ≥ 256 µM
